{"source": "patent US20220395472A1", "about": "(Dermavant Sciences GmbH, priority 2021, published 2022)", "test_system": "adults with plaque psoriasis", "test": "Long-term open-label extension study (PSOARING 3): Physician Global Assessment (PGA), treatment episodes, treatment success, remittive effect", "assay_type": "in vivo, human", "method": "This extension study consisted of up to 40 weeks of treatment and a 4 week, safety follow up period.\nAt the completion of the Week 12 visit of the DB, pivotal Phase 3 study, eligibility of the subjects opting to enroll in this extension study was confirmed. Study visits during the treatment period for all subjects occurred every 4 weeks (±3 days). A phone call was performed at Week 2 (Day 15). Unscheduled visits may have occurred, as needed. Subjects who withdrew from this study before Week 40 returned to the study center for an Early Termination visit. The total duration of this extension study participation was 44 weeks. Subjects in this study were treated as follows based on their PGA score from the Week 12 visit in the DB, pivotal Phase 3 study (Study DMVT 505 3001 or Study DMVT 505 3002).\nThe PGA was used to assess the primary efficacy endpoint in this study. The PGA is a clinical tool for assessing the current state/severity of a subject's psoriasis at a given time point. It is a static, 5 point, morphological assessment of overall disease severity, as determined by the Investigator, using the clinical characteristics of erythema, scaling, and plaque thickness/elevation as guidelines; higher PGA scores represent more severe disease (0=clear, 1=almost clear, 2=mild, 3=moderate, and 4=severe). The BSA affected was not considered in scoring of the PGA. Variations of the PGA are frequently used in clinical studies because it is a simple assessment, similar to those used in clinical practice. The PGA was performed first, prior to the % BSA, PASI, and LTS assessments.\nTime to event parameters, such as the time from treatment success to subsequent worsening (PGA≥2) or duration of treatment episode, were summarized by the Kaplan Meier product limit method using OC.", "key": {"[1]": {"settings": "Week 16, LOCF, Vehicle (Pivotal) group"}, "[2]": {"settings": "Week 16, OC, Vehicle (Pivotal) group"}, "[3]": {"settings": "Week 16 LOCF, Tapinarof (Pivotal)"}, "[4]": {"settings": "Week 16 LOCF, Vehicle (Pivotal)"}, "[5]": {"settings": "Week 16 OC, Tapinarof (Pivotal)"}}, "data": [{"compound": "CC(C)c1c(O)cc(/C=C/c2ccccc2)cc1O", "note": "[Tapinarof, 3,5-Dihydroxy-4-isopropyl-trans-stilbene]", "values": [{"measurement": "Total Duration of Treatment Success, Median", "setting": "ITT, Vehicle (Pivotal) group", "value": 97.0, "unit": "days"}, {"measurement": "tachyphylaxis (decline of clinical effects over time on treatment)", "setting": "PGA, % BSA, PASI over time", "value": "not observed"}, {"measurement": "Subjects with PGA=1", "setting": "Week 16, LOCF, Tapinarof (Pivotal) group", "value": 30.4, "unit": "%"}, {"measurement": "Subjects with PGA=0", "setting": "[1]", "value": 12.7, "unit": "%"}, {"measurement": "Subjects with PGA=1", "setting": "[1]", "value": 25.8, "unit": "%"}, {"measurement": "Subjects with PGA=1", "setting": "Week 16, OC, Tapinarof (Pivotal) group", "value": 32.2, "unit": "%"}, {"measurement": "Subjects with PGA=0", "setting": "[2]", "value": 12.9, "unit": "%"}, {"measurement": "Subjects with PGA=1", "setting": "[2]", "value": 28.2, "unit": "%"}, {"measurement": "PGA 0 - Clear", "setting": "Week 16 LOCF, Overall", "value": "121 (16.2) n (%)"}, {"measurement": "PGA 1 - Almost Clear", "setting": "Week 16 LOCF, Overall", "value": "215 (28.9) n (%)"}, {"measurement": "PGA 2 - Mild", "setting": "Week 16 LOCF, Overall", "value": "279 (37.4) n (%)"}, {"measurement": "PGA 3 - Moderate", "setting": "Week 16 LOCF, Overall", "value": "119 (16.0) n (%)"}, {"measurement": "PGA 4 - Severe", "setting": "Week 16 LOCF, Overall", "value": "11 (1.5) n (%)"}, {"measurement": "PGA Change from Baseline: Improved by 1", "setting": "Week 16 LOCF, Overall", "value": "219 (29.5) n (%)"}, {"measurement": "PGA Change from Baseline: Improved by 2", "setting": "Week 16 LOCF, Overall", "value": "91 (12.3) n (%)"}, {"measurement": "PGA Change from Baseline: Improved by 3", "setting": "Week 16 LOCF, Overall", "value": "14 (1.9) n (%)"}, {"measurement": "PGA Change from Baseline: Improved by 4", "setting": "Week 16 LOCF, Overall", "value": "2 (0.3) n (%)"}, {"measurement": "PGA Change from Baseline: No Change", "setting": "Week 16 LOCF, Overall", "value": "297 (40.0) n (%)"}, {"measurement": "PGA Change from Baseline: Worsened by 1", "setting": "Week 16 LOCF, Overall", "value": "86 (11.6) n (%)"}, {"measurement": "PGA Change from Baseline: Worsened by 2", "setting": "Week 16 LOCF, Overall", "value": "28 (3.8) n (%)"}, {"measurement": "PGA Change from Baseline: Worsened by 3", "setting": "Week 16 LOCF, Overall", "value": "5 (0.7) n (%)"}, {"measurement": "PGA Change from Baseline: Worsened by 4", "setting": "Week 16 LOCF, Overall", "value": "0 (0.0) n (%)"}, {"measurement": "PGA 1 - Almost Clear", "setting": "[3]", "value": "150 (30.4) n (%)"}, {"measurement": "PGA 2 - Mild", "setting": "[3]", "value": "174 (35.3) n (%)"}, {"measurement": "PGA 3 - Moderate", "setting": "[3]", "value": "74 (15.0) n (%)"}, {"measurement": "PGA 4 - Severe", "setting": "[3]", "value": "6 (1.2) n (%)"}, {"measurement": "PGA Change from Baseline: Improved by 1", "setting": "[3]", "value": "122 (24.8) n (%)"}, {"measurement": "PGA Change from Baseline: Improved by 2", "setting": "[3]", "value": "37 (7.5) n (%)"}, {"measurement": "PGA Change from Baseline: Improved by 3", "setting": "[3]", "value": "1 (0.2) n (%)"}, {"measurement": "PGA Change from Baseline: Improved by 4", "setting": "[3]", "value": "1 (0.2) n (%)"}, {"measurement": "PGA Change from Baseline: No Change", "setting": "[3]", "value": "223 (45.4) n (%)"}, {"measurement": "PGA Change from Baseline: Worsened by 1", "setting": "[3]", "value": "77 (15.7) n (%)"}, {"measurement": "PGA Change from Baseline: Worsened by 2", "setting": "[3]", "value": "25 (5.1) n (%)"}, {"measurement": "PGA Change from Baseline: Worsened by 3", "setting": "[3]", "value": "5 (1.0) n (%)"}, {"measurement": "PGA Change from Baseline: Worsened by 4", "setting": "[3]", "value": "0 (0.0) n (%)"}, {"measurement": "PGA 0 - Clear", "setting": "[4]", "value": "32 (12.7) n (%)"}, {"measurement": "PGA 1 - Almost Clear", "setting": "[4]", "value": "65 (25.8) n (%)"}, {"measurement": "PGA 3 - Moderate", "setting": "[4]", "value": "45 (17.9) n (%)"}, {"measurement": "PGA 4 - Severe", "setting": "[4]", "value": "5 (2.0) n (%)"}, {"measurement": "PGA Change from Baseline: Improved by 1", "setting": "[4]", "value": "97 (38.6) n (%)"}, {"measurement": "PGA Change from Baseline: Improved by 2", "setting": "[4]", "value": "54 (21.5) n (%)"}, {"measurement": "PGA Change from Baseline: Improved by 3", "setting": "[4]", "value": "13 (5.2) n (%)"}, {"measurement": "PGA Change from Baseline: Improved by 4", "setting": "[4]", "value": "1 (0.4) n (%)"}, {"measurement": "PGA Change from Baseline: No Change", "setting": "[4]", "value": "74 (29.5) n (%)"}, {"measurement": "PGA Change from Baseline: Worsened by 1", "setting": "[4]", "value": "9 (3.6) n (%)"}, {"measurement": "PGA Change from Baseline: Worsened by 2", "setting": "[4]", "value": "3 (1.2) n (%)"}, {"measurement": "PGA Change from Baseline: Worsened by 3", "setting": "[4]", "value": "0 (0.0) n (%)"}, {"measurement": "PGA Change from Baseline: Worsened by 4", "setting": "[4]", "value": "0 (0.0) n (%)"}, {"measurement": "PGA 0 - Clear", "setting": "Week 16 OC, Overall", "value": "107 (17.0) n (%)"}, {"measurement": "PGA 1 - Almost Clear", "setting": "Week 16 OC, Overall", "value": "194 (30.9) n (%)"}, {"measurement": "PGA 2 - Mild", "setting": "Week 16 OC, Overall", "value": "236 (37.6) n (%)"}, {"measurement": "PGA 3 - Moderate", "setting": "Week 16 OC, Overall", "value": "86 (13.7) n (%)"}, {"measurement": "PGA 4 - Severe", "setting": "Week 16 OC, Overall", "value": "5 (0.8) n (%)"}, {"measurement": "PGA Change from Baseline: Improved by 1", "setting": "Week 16 OC, Overall", "value": "190 (30.3) n (%)"}, {"measurement": "PGA Change from Baseline: Improved by 2", "setting": "Week 16 OC, Overall", "value": "77 (12.3) n (%)"}, {"measurement": "PGA Change from Baseline: Improved by 3", "setting": "Week 16 OC, Overall", "value": "13 (2.1) n (%)"}, {"measurement": "PGA Change from Baseline: Improved by 4", "setting": "Week 16 OC, Overall", "value": "2 (0.3) n (%)"}, {"measurement": "PGA Change from Baseline: No Change", "setting": "Week 16 OC, Overall", "value": "246 (39.2) n (%)"}, {"measurement": "PGA Change from Baseline: Worsened by 1", "setting": "Week 16 OC, Overall", "value": "69 (11.0) n (%)"}, {"measurement": "PGA Change from Baseline: Worsened by 2", "setting": "Week 16 OC, Overall", "value": "25 (4.0) n (%)"}, {"measurement": "PGA Change from Baseline: Worsened by 3", "setting": "Week 16 OC, Overall", "value": "5 (0.8) n (%)"}, {"measurement": "PGA Change from Baseline: Worsened by 4", "setting": "Week 16 OC, Overall", "value": "0 (0.0) n (%)"}, {"measurement": "PGA 0 - Clear", "setting": "[5]", "value": "80 (19.1) n (%)"}, {"measurement": "PGA 1 - Almost Clear", "setting": "[5]", "value": "135 (32.2) n (%)"}, {"measurement": "PGA 2 - Mild", "setting": "[5]", "value": "146 (34.8) n (%)"}, {"measurement": "PGA 3 - Moderate", "setting": "[5]", "value": "54 (12.9) n (%)"}, {"measurement": "PGA 4 - Severe", "setting": "[5]", "value": "4 (1.0) n (%)"}, {"measurement": "PGA Change from Baseline: Improved by 1", "setting": "[5]", "value": "109 (26.1) n (%)"}, {"measurement": "PGA Change from Baseline: Improved by 2", "setting": "[5]", "value": "29 (6.9) n (%)"}, {"measurement": "PGA Change from Baseline: Improved by 3", "setting": "[5]", "value": "1 (0.2) n (%)"}, {"measurement": "PGA Change from Baseline: Improved by 4", "setting": "[5]", "value": "1 (0.2) n (%)"}, {"measurement": "PGA Change from Baseline: No Change", "setting": "[5]", "value": "187 (44.7) n (%)"}, {"measurement": "PGA Change from Baseline: Worsened by 2", "setting": "[5]", "value": "23 (5.5) n (%)"}, {"measurement": "PGA Change from Baseline: Worsened by 3", "setting": "[5]", "value": "5 (1.2) n (%)"}, {"measurement": "PGA Change from Baseline: Worsened by 4", "setting": "[5]", "value": "0 (0.0) n (%)"}, {"measurement": "PGA 0 - Clear", "setting": "Week 16 OC, Vehicle (Pivotal)", "value": "27 (12.9) n (%)"}, {"measurement": "PGA 1 - Almost Clear", "setting": "Week 16 OC, Vehicle (Pivotal)", "value": "59 (28.2) n (%)"}, {"measurement": "PGA 2 - Mild", "setting": "Week 16 OC, Vehicle (Pivotal)", "value": "90 (43.1) n (%)"}, {"measurement": "PGA 3 - Moderate", "setting": "Week 16 OC, Vehicle (Pivotal)", "value": "32 (15.3) n (%)"}, {"measurement": "PGA 4 - Severe", "setting": "Week 16 OC, Vehicle (Pivotal)", "value": "1 (0.5) n (%)"}, {"measurement": "PGA Change from Baseline: Improved by 1", "setting": "Week 16 OC, Vehicle (Pivotal)", "value": "81 (38.8) n (%)"}, {"measurement": "PGA Change from Baseline: Improved by 2", "setting": "Week 16 OC, Vehicle (Pivotal)", "value": "48 (23.0) n (%)"}, {"measurement": "PGA Change from Baseline: Improved by 3", "setting": "Week 16 OC, Vehicle (Pivotal)", "value": "12 (5.7) n (%)"}]}]}
